Assay results: the supplement of paper PMC11061612

Tests used:
[1] = compound: CC1=CN2[C@@H](C1)C=NC3=CC(=C(C=C3C2=O)OC)OCCCCCOC4=C(C=C5C(=C4)N=C[C@@H]6CC(=CN6C5=O)C)OC [SG3199]; settings: max 0.001 µM
Outline: (§1)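 After 24 hours at 37°C and 5% CO2 in 1536-well plates holding 7.5 μl of DMEM/F12 or RPMI with 10% FBS, cancer cell lines were dosed for 72 hours, with final DMSO typically 0.2%. Viability came from CellTiter-Glo 2.0 luminescence, scaled between the means of blank wells and DMSO wells. A non-linear mixed effects model fitted a two-parameter logistic curve to each dose response to give the single-agent IC50.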

[2] = compound: CC1=C(C(=CC=C1)Cl)NC(=O)C2=CN=C(S2)NC3=CC(=NC(=N3)C)N4CCN(CC4)CCO [Dasatinib]; settings: max 2 µM
Outline: as §1

[3] = compound: CC(=O)Nc1cccc(-n2c(=O)n(C3CC3)c(=O)c3c(Nc4ccc(I)cc4F)n(C)c(=O)c(C)c32)c1 [Trametinib]; settings: max 1 µM
Outline: as §1

[4] = compound: CC(=O)O[C@H]1C(=O)[C@@]2(C)[C@H]([C@H](OC(=O)c3ccccc3)[C@]3(O)C[C@H](OC(=O)[C@H](O)[C@@H](NC(=O)c4ccccc4)c4ccccc4)C(C)=C1C3(C)C)[C@]1(OC(C)=O)CO[C@@H]1C[C@@H]2O [Paclitaxel]; settings: max 3 µM
Outline: as §1

[5] = compound: Nc1ccn([C@@H]2O[C@H](CO)[C@@H](O)C2(F)F)c(=O)n1 [Gemcitabine]; settings: max 0.3 µM
Outline: as §1

[6] = compound: C[C@@H]1COCCN1C2=NC(=NC(=C2)C3(CC3)[S@](=N)(=O)C)C4=C5C=CNC5=NC=C4 [AZD6738]; settings: max 10 µM
Outline: as §1

[7] = compound: N#Cc1cnc(Nc2cc(NC[C@H]3CNCCO3)c(C(F)(F)F)cn2)cn1 [SRA737]; settings: max 10 µM
Outline: as §1

[8] = compound: CC(C)n1c(=O)n(C)c2cnc3cc(F)c(-c4ccc(OCCCN5CCCCC5)nc4)cc3c21 [AZD1390]; settings: max 0.3 µM
Outline: as §1

[9] = compound: O=C(Nc1ccc2[nH]nc(-c3ccncc3)c2c1)[C@@H]1CCN(CC(=O)N2CCN(c3ccc(-c4ncccn4)cc3)CC2)C1; settings: max 5 µM
Outline: as §1

[10] = compound: COc1cccc2c1C(=O)c1c(O)c3c(c(O)c1C2=O)C[C@@](O)(C(=O)CO)C[C@@H]3O[C@H]1C[C@H](N)[C@H](O)[C@H](C)O1 [Doxorubicin]; settings: max 1 µM
Outline: as §1

[11] = compound: CCc1c2c(nc3ccc(O)cc13)-c1cc3c(c(=O)n1C2)COC(=O)[C@]3(O)CC [SN-38]; settings: max 0.3 µM
Outline: as §1

[12] = compound: CN(C)CCCOc1ccc(-c2ccc3ncc4c(c3c2)n(C2CCOCC2)c(=O)n4C)cn1 [AZD0156]; settings: max 3 µM
Outline: as §1

[13] = compound: C=CCn1c(=O)c2cnc(Nc3ccc(N4CCN(C)CC4)cc3)nc2n1-c1cccc(C(C)(C)O)n1 [AZD1775]; settings: max 3 µM
Outline: as §1

[14] = compound: COc1nnc2ccc(N3CCC(c4ccc(OCCN5CCN(C)C(=O)[C@H]5C)cc4)CC3)nn12 [AZD5153]; settings: max 1 µM
Outline: as §1

[15] = compound: NC1(c2ccc(-c3nc4ccn5c(=O)[nH]nc5c4cc3-c3ccccc3)cc2)CCC1 [MK-2206]; settings: max 10 µM
Outline: as §1

[16] = compound: C[C@@H](Nc1cc(F)cc(F)c1)c1cc(C(=O)N(C)C)cc2c(=O)cc(N3CCOCC3)oc12 [AZD8186]; settings: max 10 µM
Outline: as §1

[17] = compound: C1CN(CCC1(C(=O)N[C@@H](CCO)C2=CC=C(C=C2)Cl)N)C3=NC=NC4=C3C=CN4 [AZD5363]; settings: max 10 µM
Outline: as §1

[18] = compound: Cn1cnc2c(F)c(Nc3ccc(Br)cc3Cl)c(C(=O)NOCCO)cc21 [Selumetinib]; settings: max 10 µM
Outline: as §1

[19] = compound: CC(=O)c1c(C)c2cnc(Nc3ccc(N4CCNCC4)cn3)nc2n(C2CCCC2)c1=O [Palbociclib]; settings: max 10 µM
Outline: as §1

[20] = compound: CCN(CCO)CCCOc1ccc2c(Nc3cc(CC(=O)Nc4cccc(F)c4)[nH]n3)ncnc2c1 [AZD2811]; settings: max 1 µM
Outline: as §1

[21] = compound: CS(=O)(=O)CCNCc1ccc(-c2ccc3ncnc(Nc4ccc(OCc5cccc(F)c5)c(Cl)c4)c3c2)o1 [Lapatinib]; settings: max 10 µM
Outline: as §1

[22] = compound: O=C(c1cc(Cc2n[nH]c(=O)c3ccccc23)ccc1F)N1CCN(C(=O)C2CC2)CC1 [Olaparib]; settings: max 10 µM
Outline: as §1

[23] = compound: COc1cc(Nc2ncc3c(n2)-c2ccc(Cl)cc2C(c2c(F)cccc2OC)=NC3)ccc1C(=O)O [Alisertib]; settings: max 10 µM
Outline: as §1

[24] = compound: COc1cc2ncnc(Nc3ccc(F)c(Cl)c3)c2cc1OCCCN1CCOCC1 [Gefitinib]; settings: max 10 µM
Outline: as §1

[25] = compound: Cc1cc2ncnn2cc1Nc1ncc2c(n1)n(C1CCOCC1)c(=O)n2C [AZD7648]; settings: max 10 µM
Outline: as §1

[26] = compound: O=c1[nH]cc(F)c(=O)[nH]1 [5-Fluorouracil]; settings: max 20 µM
Outline: as §1

[27] = compound: COc1cccc(OCCCN)c1-c1cc(Nc2cnc(C#N)cn2)n[nH]1 [Prexasertib]; settings: max 1 µM
Outline: as §1

[28] = compound: Cc1nc(-c2cn3c(n2)-c2ccc(-c4cnn(C(C)(C)C(N)=O)c4)cc2OCC3)n(C(C)C)n1 [Taselisib]; settings: max 10 µM
Outline: as §1

[29] = compound: C1CC(C1)(C(=O)[O-])C(=O)[O-].N.N.[Pt+2] [Carboplatin]; settings: max 10 µM
Outline: as §1

[30] = compound: C[C@@H](c1ccc2nccn2c1)n1nnc2ncc(-c3cnn(C)c3)nc21 [Savolitinib]; settings: max 1 µM
Outline: as §1

[31] = compound: CN(CC[C@H](CSC1=CC=CC=C1)NC2=C(C=C(C=C2)S(=O)(=O)NC(=O)C3=CC=C(C=C3)N4CCC(CC4)[C@H](C5=CC=CC=C5C6=CC=C(C=C6)Cl)O)S(=O)(=O)C(F)(F)F)CCO [AZD4320]; settings: max 1 µM
Outline: as §1

[32] = compound: CC1(C)CCC(CN2CCN(c3ccc(C(=O)NS(=O)(=O)c4ccc(NCC5CCOCC5)c([N+](=O)[O-])c4)c(Oc4cnc5[nH]ccc5c4)c3)CC2)=C(c2ccc(Cl)cc2)C1 [Venetoclax]; settings: max 1 µM
Outline: as §1

[33] = compound: C[C@@H](Oc1cc(-c2cnn(C3CCNCC3)c2)cnc1N)c1c(Cl)ccc(F)c1Cl [Crizotinib]; settings: max 10 µM
Outline: as §1

[34] = compound: COc1cc([C@@H]2c3cc4c(cc3[C@@H](O[C@@H]3O[C@@H]5CO[C@@H](C)O[C@H]5[C@H](O)[C@H]3O)[C@H]3COC(=O)[C@H]23)OCO4)cc(OC)c1O [Etoposide]; settings: max 10 µM
Outline: as §1

[35] = compound: Cc1c2c(nn1C)CSCc1cc(n(C)n1)CSc1cc(c3ccccc3c1)OCCCc1c(C(=O)O)n(C)c3c-2c(Cl)ccc13 [AZD5991]; settings: max 1 µM
Outline: as §1

Row | Cell Line | IC50, cell viability 72 h [1] [nM] | IC50, cell viability 72 h [2] [nM] | IC50, cell viability 72 h [3] [nM] | IC50, cell viability 72 h [4] [nM] | IC50, cell viability 72 h [5] [nM] | IC50, cell viability 72 h [6] [µM] | IC50, cell viability 72 h [7] [µM] | IC50, cell viability 72 h [8] [nM] | IC50, cell viability 72 h [9] [µM] | IC50, cell viability 72 h [10] [nM] | IC50, cell viability 72 h [11] [nM] | IC50, cell viability 72 h [12] [nM] | IC50, cell viability 72 h [13] [nM] | IC50, cell viability 72 h [14] [nM] | IC50, cell viability 72 h [15] [µM] | IC50, cell viability 72 h [16] [µM] | IC50, cell viability 72 h [17] [µM] | IC50, cell viability 72 h [18] [µM] | IC50, cell viability 72 h [19] [µM] | IC50, cell viability 72 h [20] [nM] | IC50, cell viability 72 h [21] [µM] | IC50, cell viability 72 h [22] [µM] | IC50, cell viability 72 h [23] [µM] | IC50, cell viability 72 h [24] [µM] | IC50, cell viability 72 h [25] [µM] | IC50, cell viability 72 h [26] [µM] | IC50, cell viability 72 h [27] [nM] | IC50, cell viability 72 h [28] [nM] | IC50, cell viability 72 h [29] [µM] | IC50, cell viability 72 h [30] [nM] | IC50, cell viability 72 h [31] [nM] | IC50, cell viability 72 h [32] [nM] | IC50, cell viability 72 h [33] [µM] | IC50, cell viability 72 h [34] [µM] | IC50, cell viability 72 h [35] [nM]
1 | 8305C (Thyroid Gland Carcinoma) | > 1 | 1150 | 902 | 159 | > 300 | > 10 | > 10 | > 300 | > 5 | > 1000 | > 300 | > 3000 | 1940 | > 1000 | > 10 | > 10 | > 10 | > 10 | > 10 | > 1000 | > 10 | > 10 | > 10 | > 10 | > 10 | > 20 | 87.8 | 1280 | > 10 | > 1000 | > 1000 | > 1000 | > 10 | > 10 | > 1000
2 | CAL-54 (Kidney Carcinoma) | > 1 | 33.6 | > 1000 | 399 | 23.4 | 5.49 | > 10 | > 300 | > 5 | 936 | 15.6 | > 3000 | 452 | 102 | 3.36 | 0.873 | 9.91 | > 10 | 4.13 | > 1000 | 7.99 | > 10 | 4.71 | 5.89 | > 10 | > 20 | 38.5 | 2280 | > 10 | > 1000 | > 1000 | > 1000 | > 10 | > 10 | > 1000
3 | CAPAN-1 (Pancreatic Carcinoma) | > 1 | > 2000 | 349 | 188 | 130 | > 10 | > 10 | > 300 | 2.79 | > 1000 | 38.8 | > 3000 | 1230 | > 1000 | > 10 | > 10 | > 10 | > 10 | > 10 | > 1000 | > 10 | > 10 | > 10 | > 10 | > 10 | > 20 | 485 | > 10000 | > 10 | > 1000 | > 1000 | > 1000 | > 10 | > 10 | > 1000
4 | EN (Endometrial Carcinoma) | > 1 | > 2000 | > 1000 | 798 | > 300 | 8.64 | > 10 | > 300 | > 5 | > 1000 | > 300 | > 3000 | 770 | > 1000 | 8.08 | > 10 | 5.5 | > 10 | > 10 | 947 | > 10 | > 10 | 3.67 | > 10 | > 10 | > 20 | 41.3 | 2730 | > 10 | > 1000 | > 1000 | > 1000 | > 10 | > 10 | > 1000
5 | HARA (Squamous Cell Lung Carcinoma) | > 1 | > 2000 | 858 | 3.63 | 56 | 1.73 | 1 | > 300 | 3.84 | 577 | 44.5 | > 3000 | 207 | 223 | > 10 | > 10 | 9.16 | > 10 | 7.42 | > 1000 | 7.69 | > 10 | 3.82 | > 10 | > 10 | 18.3 | 13.9 | 2150 | > 10 | > 1000 | > 1000 | > 1000 | > 10 | 9.59 | > 1000
